According to patent US20120309796A1, “BENZOCYCLOHEPTENE ACETIC ACIDS” (priority 2011, published 2012):
pIC50: −log10 of the molar value.

Tests used:
human CRTH2 [1] = target: T1, human CRTH2 (Homo sapiens, UniProt Q9Y5Y4); test: Calcium Flux Assay Using Fluorometric Imaging Plate Reader (FLIPR); assay type: cell-based; parameters: expressed in transfected cells; host or cells: CHO-K1 previously transfected with G-alpha 16; settings: CHO-K1 cells with G-alpha 16 and human CRTH2; inhibition of DK-PGD2 ligand-induced Ca2+ flux
T1 sequence (Q9Y5Y4 1-395): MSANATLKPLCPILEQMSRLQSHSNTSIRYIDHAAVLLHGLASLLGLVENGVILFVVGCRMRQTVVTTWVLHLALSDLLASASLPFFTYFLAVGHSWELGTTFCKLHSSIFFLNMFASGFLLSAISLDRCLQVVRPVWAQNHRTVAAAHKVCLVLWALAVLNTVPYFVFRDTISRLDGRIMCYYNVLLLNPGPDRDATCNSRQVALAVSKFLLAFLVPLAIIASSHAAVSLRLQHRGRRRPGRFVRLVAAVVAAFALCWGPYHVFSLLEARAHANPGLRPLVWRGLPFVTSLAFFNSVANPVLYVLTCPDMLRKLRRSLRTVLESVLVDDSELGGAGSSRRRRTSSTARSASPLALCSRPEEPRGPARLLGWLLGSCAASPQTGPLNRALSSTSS
Description: CHO-K1 cells previously transfected with G-alpha 16 were subsequently transfected with the human CRTH2 receptor and the neomycin resistance gene. Following selection in 800 μg/mL G418 (geneticin), individual clones were assayed for their receptor expression based on staining with an anti human CRTH2 IgG, followed by assaying for their response to 13,14-dihydro-15-keto Prostaglandin D2 (DK-PDG2) (ligand) in the Ca^2+ Flux assay. Positive clones were then cloned by limiting dilution cloning. The transfected cells were cultured in Ham's F-12 medium supplemented with 10% fetal bovine serum, 2 mM glutamine, 100 U/mL penicillin/100 μg/mL streptomycin, 200 μg/mL hygromycin B, and 800 μg/mL G418 (geneticin). Cells were harvested with trypsin-EDTA (trypsin-ethylenediaminetetraacetic acid) and counted using ViaCount® reagent (from Guava Technologies, Inc. which contains two DNA-binding dyes that enable the reagent user to distinguish between viable and non-viable cells). The cell suspension volume was adjusted to 2.5×10^5 cells/mL with complete growth media. Aliquots of 50 μL were dispensed into BD Falcon™ 384 well black/clear microplates (from BD Biosciences, a division of Becton, Dickinson and Company) and the microplates were placed in a 37° C. CO2 incubator overnight. The following day, the microplates were used in the assay.
Loading Buffer containing dye (from the FLIPR® Calcium 3 Assay Kit from Molecular Devices, a division of MDS Analytical Technologies and MDS Inc.) was prepared by dissolving the contents of one bottle into 200 mL Hank's Balanced Salt Solution containing 20 mM HEPES (4-(2-hydroxyethyl)-1-piperazineethanesulfonic acid) and 2.5 mM probenecid. Growth media was removed from the cell plates and 25 μL of Hank's Balanced Salt Solution (HBSS) containing 20 mM HEPES, 0.05% BSA and 2.5 mM probenecid was added to each well followed by 25 μL of diluted dye using a Multidrop dispenser. The plates were then incubated for 1 hour at 37° C.
During the incubation, test compound plates were prepared by adding 90 μL of HBSS/20 mM HEPES/0.005% BSA buffer to the 2 μL of serial diluted compounds. To prepare serial diluted compounds, 20 mM stocks of compounds were dissolved in 100% DMSO. The compound dilution plate was set up as follows: well #1 received 5 μL of compound plus 10 μL of DMSO. Wells 2-10 received 10 μL of DMSO. 5 μL was mixed and transferred from well #1 into well #2. 1:3 serial dilutions were continued out 10 steps. 2 μl of diluted compound was transferred into duplicate wells of a 384 well “assay plate” and then 90 μL of buffer was added.
After incubation, both the cell and “assay plate” plates were brought to the fluorometric imaging plate reader (FLIPR®) and 20 μL of the diluted compounds were transferred to the cell plates by the FLIPR®. Plates were then incubated for 1 hour at room temperature. After the 1 hour incubation, plates were returned to the FLIPR® and 20 μL of 4.5× concentrated ligand was added to the cell plates. During the assay, fluorescence readings were taken simultaneously from all 384 wells of the cell plate every 1.5 seconds. Five readings were taken to establish a stable baseline, then 20 μL of sample was rapidly (30 μL/sec) and simultaneously added to each well of the cell plate. The fluorescence was continuously monitored before, during and after sample addition for a total elapsed time of 100 seconds. Responses (increase in peak fluorescence) in each well following agonist addition were determined. The initial fluorescence reading from each well, prior to ligand stimulation, was used as a zero baseline value for the data from that well. The responses were expressed as % inhibition of the buffer control. […]

human CRTH2 [2] = target: T1, human CRTH2; test: Human CRTH2 Receptor Binding Assay (whole cell, [3H]ramatroban competition); parameters: two mammalian expression vectors that harbored human CRTH2 and G-alpha16 cDNAs; expressed in transfected cells; settings: CHO-K1 cells expressing human CRTH2 and G-alpha16; 20 nM [3H]ramatroban; 1 hour, room temperature
Source text: A whole cell receptor binding assay using [^3H]ramatroban as the competing radioactive ligand was employed to evaluate the compound binding activity to human CRTH2. The radioactive ligand [^3H]ramatroban was synthesized according to Sugimoto et. al. (Eur. J. Pharmacol. 2005, 524, 30-37) to a specific activity of 42 Ci/mmol
A cell line stably expressing human CRTH2 was established by transfecting CHO-K1 cells with two mammalian expression vectors that harbored human CRTH2 and G-alpha16 cDNAs, respectively, using FuGene® 6 transfection reagent (from Roche). Stable clones expressing CRTH2 were selected by staining each clone with BM16 (BD Pharmingen™ from BD Biosciences, a division of Becton, Dickinson and Company), which is a rat monoclonal antibody to human CRTH2. The cells were maintained as monolayer cultures in Ham's F-12 medium containing 10% fetal bovine serum, 100 units/mL penicillin, 100 μg/mL streptomycin, 2 mM glutamine, 0.5 mg/mL G418 (geneticin) for CRTH2, and 0.2 mg/mL hygromycin-B (for G-alpha 16). For whole cell receptor binding assay, the monolayer cells were rinsed once with PBS (phosphate buffered saline), dissociated using ethylenediaminetetraacetate (Versene™ EDTA from Lonza Inc.), and suspended in PBS containing 10 mM MgCl2 and 0.06% BSA (bovine serum albumin) at 1.5×10^6 cells/mL.
The binding reactions (0.2 mL) were performed in 96-well plates at room temperature in PBS containing 1.5×10^5 cells, 10 mM MgCl2, 0.06% BSA, 20 nM [^3H]ramatroban, and test compound at various concentrations. After 1 hour of binding reactions, the cells were harvested on GF™/B filter microplates (microtiter plates with embedded glass fiber from PerkinElmer, Inc.) and washed 5 times with PBS using a Filtermate™ Harvester (a cell harvester that harvests and washes cells from microplates from PerkinElmer, Inc.). The radioactivities bound to the cells were determined using a microplate scintillation counter (TopCount® NXT, from PerkinElmer, Inc.) after adding 50 μL of Microscint™ 20 scintillation fluid (from PerkinElmer, Inc.) to each well of the filter plates. The radioactivity from non-specific binding was determined by replacing compound with 10 μM of 15(R)-15-methyl PGD2 (from Cayman Chemical Company) in the reaction mixtures. The radioactivity bound to the cells in the absence of compound (total binding) was determined by replacing compound with 0.25% of DMSO (dimethyl sulfoxide) in the reaction mixture. Specific binding data were obtained by subtracting the radioactivity of non-specific binding from each binding data.
The IC50 value is defined as the concentration of the tested compound that is required for 50% inhibition of total specific binding. In order to calculate the IC50 value, the percent inhibition data were determined for 7 concentrations for each compound. The percent inhibition for a compound at each concentration was calculated according to the following formula, [1-(specific binding in the presence of compound)/(total specific binding)]×100. The IC50 value was then obtained by fitting the percent inhibition data to a sigmoidal dose-response (4 parameter logistic) model in the XLfit® software Excel add-in program [from ID Business Solutions Ltd., model 205, where F(x)=(A+(B−A)/(1+((C/x)̂D)))].

| SMILES | pIC50 (human CRTH2 [1]) | pIC50 (human CRTH2 [2]) |
| --- | --- | --- |
| O=C(O)COc1cccc2c1CCCCC2NS(=O)(=O)c1cc(Cl)cc(Cl)c1 (stereo not drawn) [Example 2, [5-(3,5-Dichloro-benzenesulfonylamino)-6,7,8,9-tetrahydro-5H-benzocyclohepten-1-yloxy]-acetic acid] | 6.47 | 7.23 |
| O=C(O)COc1cccc2c1CCCCC2NS(=O)(=O)c1ccc(-c2ccc(O)cc2)cc1 (stereo not drawn) [Example 23, [5-(4′-Hydroxy-biphenyl-4-sulfonylamino)-6,7,8,9-tetrahydro-5H-benzocyclohepten-1-yloxy]-acetic acid] | 7.38 | 6.99 |
| CC(C)c1cccc(-c2ccc(S(=O)(=O)NC3CCCCc4c(OCC(=O)O)cccc43)nc2)c1 (stereo not drawn) [Example 31, {5-[5-(3-Isopropyl-phenyl)-pyridine-2-sulfonylamino]-6,7,8,9-tetrahydro-5H-benzocyclohepten-1-yloxy}-acetic acid] | 6.32 | 7.57 |
| Cc1ccc(-c2cccc(S(=O)(=O)NC3CCCCc4c(OCC(=O)O)cccc43)c2)cc1 (stereo not drawn) [Example 39, [5-(4′-Methyl-biphenyl-3-sulfonylamino)-6,7,8,9-tetrahydro-5H-benzocyclohepten-1-yloxy]-acetic acid] | – | 6.29 |
| CC(C)c1cccc(-c2cccc(S(=O)(=O)N(C)C3CCCCc4c(OCC(=O)O)cccc43)c2)c1 (stereo not drawn) [Example 42, {5-[(3′-Isopropyl-biphenyl-3-sulfonyl)-methyl-amino]-6,7,8,9-tetrahydro-5H-benzocyclohepten-1-yloxy}-acetic acid] | – | 6.07 |
| CC(C)c1cc(C(F)(F)F)cc(S(=O)(=O)NC2CCCCc3c(OCC(=O)O)cccc32)c1 (stereo not drawn) [Example 43, [5-(3-Isopropyl-5-trifluoromethyl-benzenesulfonylamino)-6,7,8,9-tetrahydro-5H-benzocyclohepten-1-yloxy]-acetic acid] | – | 6.53 |
| CC(C)c1cc(C(F)(F)F)cc(S(=O)(=O)N(C)C2CCCCc3c(OCC(=O)O)cccc32)c1 (stereo not drawn) [Example 44, {5-[(3-Isopropyl-5-trifluoromethyl-benzenesulfonyl)-methyl-amino]-6,7,8,9-tetrahydro-5H-benzocyclohepten-1-yloxy}-acetic acid] | – | 6.70 |

More lines, in order of rising pIC50 (human CRTH2 [2]), values ahead:

| pIC50 (human CRTH2 [1]) | pIC50 (human CRTH2 [2]) | SMILES |
| --- | --- | --- |
| – | 5.67 | CN(C1CCCCc2c(OCC(=O)O)cccc21)S(=O)(=O)c1ccc(-c2cccc(CCO)c2)cn1 (stereo not drawn) [Example 38, [5-({5-[3-(2-Hydroxy-ethyl)-phenyl]-pyridine-2-sulfonyl}-methyl-amino)-6,7,8,9-tetrahydro-5H-benzocyclohepten-1-yloxy]-acetic acid] |
| 6.24 | 6.02 | CS(=O)(=O)c1cccc(S(=O)(=O)NC2CCCCc3c(OCC(=O)O)cccc32)c1 (stereo not drawn) [Example 5, [5-(3-Methanesulfonyl-benzenesulfonylamino)-6,7,8,9-tetrahydro-5H-benzocyclohepten-1-yloxy]-acetic acid] |
| – | 6.26 | Cc1ccc(-c2cccc(S(=O)(=O)N(C)C3CCCCc4c(OCC(=O)O)cccc43)c2)cc1 (stereo not drawn) [Example 40, {5-[Methyl-(4′-methyl-biphenyl-3-sulfonyl)-amino]-6,7,8,9-tetrahydro-5H-benzocyclohepten-1-yloxy}-acetic acid] |
| 8.21 | 7.24 | CN(C1CCCCc2c(OCC(=O)O)cccc21)S(=O)(=O)c1cc(Br)cc(C(F)(F)F)c1 (stereo not drawn) [Example 9, {5-[(3-Bromo-5-trifluoromethyl-benzenesulfonyl)-methyl-amino]-6,7,8,9-tetrahydro-5H-benzocyclohepten-1-yloxy}-acetic acid] |
| 7.44 | 7.33 | O=C(O)COc1cccc2c1CCCCC2NS(=O)(=O)c1cc(Br)cc(C(F)(F)F)c1 (stereo not drawn) [Example 8, [5-(3-Bromo-5-trifluoromethyl-benzenesulfonylamino)-6,7,8,9-tetrahydro-5H-benzocyclohepten-1-yloxy]-acetic acid] |
| 6.91 | 7.47 | Cc1cncc(-c2ccc(S(=O)(=O)NC3CCCCc4c(OCC(=O)O)cccc43)cc2)c1 (stereo not drawn) [Example 25, {5-[4-(5-Methyl-pyridin-3-yl)-benzenesulfonylamino]-6,7,8,9-tetrahydro-5H-benzocyclohepten-1-yloxy}-acetic acid] |
| 6.59 | 7.47 | O=C(O)COc1cccc2c1CCCCC2NS(=O)(=O)c1ccc(-c2ccccc2)cc1 (stereo not drawn) [Example 4, [5-(Biphenyl-4-sulfonylamino)-6,7,8,9-tetrahydro-5H-benzocyclohepten-1-yloxy]-acetic acid] |
| 7.22 | 8.04 | CS(=O)(=O)c1cccc(-c2ccc(S(=O)(=O)NC3CCCCc4c(OCC(=O)O)cccc43)cc2)c1 (stereo not drawn) [Example 29, [5-(3′-Methanesulfonyl-biphenyl-4-sulfonylamino)-6,7,8,9-tetrahydro-5H-benzocyclohepten-1-yloxy]-acetic acid] |
